From ChEMBL document CHEMBL4334464, “From Phenylthiazoles to Phenylpyrazoles: Broadening the Antibacterial Spectrum toward Carbapenem-Resistant Bacteria” (J Med Chem, 2019)
In brackets after ≈: the same amount, converted by molar mass. Activity calls are given as the source filed them. The calls are words filed in the database; no cut-off is given here.

Legend:
Staphylococcus aureus [1] = test: Antibacterial activity against methicillin-resistant Staphylococcus aureus NRS384-USA300 clinical isolates after 18 to 20 hrs in aerobic condition by CLSI protocol based broth microdilution assay; type: functional
Staphylococcus aureus [2] = test: Antibacterial activity against Methicillin-sensitive Staphylococcus aureus ATCC 6538 clinical isolates after 18 to 20 hrs in aerobic condition by CLSI protocol based broth microdilution assay; type: functional
Staphylococcus aureus [3] = test: Antibacterial activity against Methicillin-resistant Staphylococcus aureus USA700-NRS386 clinical isolates after 18 to 20 hrs in aerobic condition by CLSI protocol based broth microdilution assay; type: functional
[4] = tested on: Staphylococcus epidermidis; test: Antibacterial activity against Staphylococcus epidermidis NRS101 after 18 to 20 hrs in aerobic condition by CLSI-based broth microdilution assay; type: functional
Enterococcus faecalis = test: Antibacterial activity against vancomycin-resistant Enterococcus faecalis ATCC 51299 clinical isolates after 18 to 20 hrs in aerobic condition by CLSI-based broth microdilution assay; type: functional
Listeria monocytogenes [5] = test: Antibacterial activity against Listeria monocytogenes ATCC 19111 after 18 to 20 hrs in aerobic condition by CLSI-based broth microdilution assay; type: functional
Streptococcus pneumoniae [6] = test: Antibacterial activity against cephalosporin-resistant Streptococcus pneumoniae ATCC 51916 clinical isolates after 18 to 20 hrs by CLSI-based broth microdilution assay; type: functional
Streptococcus pneumoniae [7] = test: Antibacterial activity against methicillin-resistant Streptococcus pneumoniae ATCC 700677 clinical isolates after 18 to 20 hrs by CLSI-based broth microdilution assay; type: functional
Acinetobacter baumannii [8] = test: Antibacterial activity against Acinetobacter baumannii ATCC 19606 clinical isolates after 18 to 20 hrs in aerobic condition by CLSI-based broth microdilution assay; type: functional; settings: ATCC 19606 = CIP 70.34 = JCM 6841
Acinetobacter baumannii [9] = test: Antibacterial activity against Acinetobacter baumannii ATCC BAA 1141 clinical isolates after 18 to 20 hrs in aerobic condition by CLSI-based broth microdilution assay; type: functional
Acinetobacter baumannii [10] = test: Antibacterial activity against Acinetobacter baumannii NR 17785 clinical isolates after 18 to 20 hrs in aerobic condition by CLSI-based broth microdilution assay; type: functional
Escherichia coli [11] = test: Antibacterial activity against Escherichia coli ATCC 35150 clinical isolates after 18 to 20 hrs in aerobic condition by CLSI-based broth microdilution assay; type: functional
[12] = Antibacterial activity against Enterobacter cloacae subsp. cloacae ATCC BAA-1143 clinical isolates after 18 to 20 hrs in aerobic condition by CLSI-based broth microdilution assay; type: functional
Salmonella typhimurium [13] = test: Antibacterial activity against Salmonella typhimurium ATCC 700720 after 18 to 20 hrs in aerobic condition by CLSI-based broth microdilution assay; type: functional, Salmonella enterica subsp. enterica serovar Typhimurium; settings: Salmonella enterica
Shigella flexneri [14] = test: Antibacterial activity against Shigella flexneri ATCC 9199 clinical isolates after 18 to 20 hrs in aerobic condition by CLSI-based broth microdilution assay; type: functional
Escherichia coli [15] = test: Antibacterial activity against carbapenem-resistant Escherichia coli BAA-2452 clinical isolates after 18 to 20 hrs in aerobic condition by CLSI-based broth microdilution assay; type: functional
Escherichia coli [16] = test: Antibacterial activity against carbapenem-resistant Escherichia coli BAA-2469 clinical isolates after 18 to 20 hrs in aerobic condition by CLSI-based broth microdilution assay; type: functional
Pseudomonas aeruginosa [17] = test: Antibacterial activity against carbapenem-resistant Pseudomonas aeruginosa ATCC 1744 clinical isolates after 18 to 20 hrs in aerobic condition by CLSI-based broth microdilution assay; type: functional
Escherichia coli [18] = test: Inhibition of 6His tagged Escherichia coli UPPP expressed in Escherichia coli C41(DE3) cells preincubated for 15 mins followed by FPP substrate addition and measured after 20 mins by malachite green reagent based assay
[19] = target: T1, Ditrans,polycis-undecaprenyl-diphosphate synthase ((2E,6E)-farnesyl-diphosphate specific) (Escherichia coli (strain K12)) (UniProt P60472); test: Inhibition of Escherichia coli UPPS using FPP/IPP as substrate preincubated for 30 mins followed by substrates addition and measured after 30 mins by malachite green reagent based assay
T1 sequence (whole entry): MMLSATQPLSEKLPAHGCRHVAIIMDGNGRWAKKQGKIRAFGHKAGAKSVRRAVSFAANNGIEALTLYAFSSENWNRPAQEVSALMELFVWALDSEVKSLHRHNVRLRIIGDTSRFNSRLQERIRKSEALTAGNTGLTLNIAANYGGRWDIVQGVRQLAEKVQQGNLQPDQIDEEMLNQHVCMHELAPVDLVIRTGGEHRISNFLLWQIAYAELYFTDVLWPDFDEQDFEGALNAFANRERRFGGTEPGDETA

Staphylococcus aureus [20] = test: Ratio of MBC to MIC for Methicillin-sensitive Staphylococcus aureus ATCC 6538 clinical isolates; type: functional
Staphylococcus aureus [21] = test: Ratio of MBC to MIC for Methicillin-sensitive Staphylococcus aureus NRS107 clinical isolates; type: functional
Enterococcus faecium = test: Ratio of MBC to MIC for vancomycin-resistant Enterococcus faecium ATCC 700221 clinical isolates; type: functional
Listeria monocytogenes [22] = test: Ratio of MBC to MIC for Listeria monocytogenes ATCC 19111 clinical isolates; type: functional
Streptococcus pneumoniae [23] = test: Ratio of MBC to MIC for cephalosporin-resistant Streptococcus pneumoniae ATCC 51916 clinical isolates; type: functional
Acinetobacter baumannii [24] = test: Ratio of MBC to MIC for Acinetobacter baumannii ATCC 19606 clinical isolates; type: functional, ATCC 19606 = CIP 70.34 = JCM 6841
Acinetobacter baumannii [25] = test: Ratio of MBC to MIC for Acinetobacter baumannii NR 17785 clinical isolates; type: functional
Acinetobacter baumannii [26] = test: Ratio of MBC to MIC for Acinetobacter baumannii NR 17786 clinical isolates; type: functional
Escherichia coli [27] = test: Ratio of MBC to MIC for Escherichia coli ATCC 25922 clinical isolates; type: functional
Escherichia coli [28] = test: Ratio of MBC to MIC for Escherichia coli ATCC 1411 clinical isolates; type: functional
[29] = tested on: Enterobacter cloacae subsp. cloacae; test: Ratio of MBC to MIC for Enterobacter cloacae subsp. cloacae ATCC BAA-1143 clinical isolates; type: functional
Klebsiella pneumoniae [30] = test: Ratio of MBC to MIC for Klebsiella pneumoniae BAA-1706 after 18 to 20 hrs in aerobic condition by CLSI-based broth microdilution assay; type: functional
Klebsiella pneumoniae [31] = test: Ratio of MBC to MIC for Klebsiella pneumoniae BAA-1144 clinical isolates; type: functional
Salmonella enterica = test: Ratio of MBC to MIC for Salmonella enterica NR-170 clinical isolates; type: functional
Salmonella enteritidis = test: Ratio of MBC to MIC for Salmonella enteritidis ATCC 13076 clinical isolates; type: functional, Salmonella enterica subsp. enterica serovar Enteritidis
Salmonella typhimurium [32] = test: Ratio of MBC to MIC for Salmonella typhimurium ATCC 700720 clinical isolates; type: functional, Salmonella enterica subsp. enterica serovar Typhimurium
Shigella flexneri [33] = test: Ratio of MBC to MIC for Shigella flexneri ATCC 9199 clinical isolates; type: functional
Pseudomonas aeruginosa [34] = test: Ratio of MBC to MIC for Pseudomonas aeruginosa ATCC 9027 clinical isolates; type: functional
Pseudomonas aeruginosa [35] = test: Ratio of MBC to MIC for Pseudomonas aeruginosa ATCC 15442 clinical isolates; type: functional
Clostridioides difficile = test: Ratio of MBC to MIC for Clostridium difficile ATCC BAA 1870; type: functional
Pseudomonas aeruginosa [36] = test: microbe, parasite or virus in culture; settings: ATCC 25619
Description: Antibacterial activity against Pseudomonas aeruginosa ATCC 25619 clinical isolates after 18 to 20 hrs in aerobic condition by CLSI-based broth microdilution assay

C/C(=N\NC(=N)N)c1cnn(-c2ccc(C#CC3CCCCC3)cc2)c1C
MIC (Staphylococcus aureus [1]): 2 µg/mL (≈ 5.52 µM)
MIC (Staphylococcus aureus [2]): 2 µg/mL (≈ 5.52 µM)
MIC (Staphylococcus aureus [3]): 2 µg/mL (≈ 5.52 µM)
MIC [4]: 2 µg/mL (≈ 5.52 µM)
MIC (Enterococcus faecalis): 2 µg/mL (≈ 5.52 µM)
MIC (Listeria monocytogenes [5]): 2 µg/mL (≈ 5.52 µM)
MIC (Streptococcus pneumoniae [6]): 2 µg/mL (≈ 5.52 µM)
MIC (Streptococcus pneumoniae [7]): 2 µg/mL (≈ 5.52 µM)
MIC (Acinetobacter baumannii [8]): 4 µg/mL (≈ 11 µM)
MIC (Acinetobacter baumannii [9]): 4 µg/mL (≈ 11 µM)
MIC (Acinetobacter baumannii [10]): 8 µg/mL (≈ 22.1 µM)
MIC (Escherichia coli [11]): 4 µg/mL (≈ 11 µM)
MIC [12]: 8 µg/mL (≈ 22.1 µM)
MIC (Salmonella typhimurium [13]): 8 µg/mL (≈ 22.1 µM)
MIC (Shigella flexneri [14]): 8 µg/mL (≈ 22.1 µM)
MIC (Escherichia coli [15]): 8 µg/mL (≈ 22.1 µM)
MIC (Escherichia coli [16]): 4 µg/mL (≈ 11 µM)
MIC (Pseudomonas aeruginosa [17]): 32 µg/mL (≈ 88.3 µM)
inhibition (Escherichia coli [18]): inactive
inhibition [19]: inactive
Ratio (Staphylococcus aureus [20]): <=2
Ratio (Staphylococcus aureus [21]): <=2
Ratio (Enterococcus faecium): <3
Ratio (Listeria monocytogenes [22]): <3
Ratio (Streptococcus pneumoniae [23]): <3
Ratio (Acinetobacter baumannii [24]): >=1
Ratio (Acinetobacter baumannii [25]): >=1
Ratio (Acinetobacter baumannii [26]): >=1
Ratio (Escherichia coli [27]): >=1
Ratio (Escherichia coli [28]): >=1
Ratio [29]: > 1
Ratio (Klebsiella pneumoniae [30]): >=1
Ratio (Klebsiella pneumoniae [31]): >=1
Ratio (Salmonella enterica): >=1
Ratio (Salmonella enteritidis): >=1
Ratio (Salmonella typhimurium [32]): >=1
Ratio (Shigella flexneri [33]): >=1
Ratio (Pseudomonas aeruginosa [34]): >=1
Ratio (Pseudomonas aeruginosa [35]): >=1
Ratio (Clostridioides difficile): <3
MIC (Pseudomonas aeruginosa [36]): 64 µg/mL (≈ 177 µM)

CCCC#Cc1ccc(-n2ncc(/C(C)=N/NC(=N)N)c2C)cc1
MIC (Staphylococcus aureus [1]): 4 µg/mL (≈ 12.4 µM)
MIC (Staphylococcus aureus [2]): 2 µg/mL (≈ 6.2 µM)
MIC (Staphylococcus aureus [3]): 4 µg/mL (≈ 12.4 µM)
MIC [4]: 4 µg/mL (≈ 12.4 µM)
MIC (Enterococcus faecalis): 4 µg/mL (≈ 12.4 µM)
MIC (Listeria monocytogenes [5]): 4 µg/mL (≈ 12.4 µM)
MIC (Streptococcus pneumoniae [6]): 4 µg/mL (≈ 12.4 µM)
MIC (Streptococcus pneumoniae [7]): 4 µg/mL (≈ 12.4 µM)
MIC (Acinetobacter baumannii [8]): 8 µg/mL (≈ 24.8 µM)
MIC (Acinetobacter baumannii [9]): 8 µg/mL (≈ 24.8 µM)
MIC (Acinetobacter baumannii [10]): 8 µg/mL (≈ 24.8 µM)
MIC (Escherichia coli [11]): 8 µg/mL (≈ 24.8 µM)
MIC [12]: 16 µg/mL (≈ 49.6 µM)
MIC (Salmonella typhimurium [13]): 16 µg/mL (≈ 49.6 µM)
MIC (Shigella flexneri [14]): 16 µg/mL (≈ 49.6 µM)
MIC (Escherichia coli [15]): 32 µg/mL (≈ 99.3 µM)
MIC (Escherichia coli [16]): 32 µg/mL (≈ 99.3 µM)
MIC (Pseudomonas aeruginosa [17]): 32 µg/mL (≈ 99.3 µM)
inhibition (Escherichia coli [18]): inactive
inhibition [19]: inactive
Ratio (Staphylococcus aureus [20]): <=2
Ratio (Staphylococcus aureus [21]): <=2
Ratio (Enterococcus faecium): <3
Ratio (Listeria monocytogenes [22]): <3
Ratio (Streptococcus pneumoniae [23]): <3
Ratio (Acinetobacter baumannii [24]): >=1
Ratio (Acinetobacter baumannii [25]): >=1
Ratio (Acinetobacter baumannii [26]): >=1
Ratio (Escherichia coli [27]): >=1
Ratio (Escherichia coli [28]): >=1
Ratio [29]: > 1
Ratio (Klebsiella pneumoniae [30]): >=1
Ratio (Klebsiella pneumoniae [31]): >=1
Ratio (Salmonella enterica): >=1
Ratio (Salmonella enteritidis): >=1
Ratio (Salmonella typhimurium [32]): >=1
Ratio (Shigella flexneri [33]): >=1
Ratio (Pseudomonas aeruginosa [34]): >=1
Ratio (Pseudomonas aeruginosa [35]): >=1
Ratio (Clostridioides difficile): <3
MIC (Pseudomonas aeruginosa [36]): 16 µg/mL (≈ 49.6 µM)
